Results published in ChEMBL document CHEMBL5528011, “Recent progress and applications of small molecule inhibitors of Keap1-Nrf2 axis for neurodegenerative diseases” (Eur J Med Chem, 2024).

Tests used:
[1] = biological target: T1, Nuclear factor erythroid 2-related factor 2 (Mus musculus) (UniProt Q60795); test: Activation of Nrf2 in mouse BV-2 cells assessed as increase in GCLM mRNA expression by measuring fold change at 5 uM incubated for 3 hrs by qRT-PCR analysis; assay type: cell-based; conditions: filed as activator
T1 sequence (whole entry): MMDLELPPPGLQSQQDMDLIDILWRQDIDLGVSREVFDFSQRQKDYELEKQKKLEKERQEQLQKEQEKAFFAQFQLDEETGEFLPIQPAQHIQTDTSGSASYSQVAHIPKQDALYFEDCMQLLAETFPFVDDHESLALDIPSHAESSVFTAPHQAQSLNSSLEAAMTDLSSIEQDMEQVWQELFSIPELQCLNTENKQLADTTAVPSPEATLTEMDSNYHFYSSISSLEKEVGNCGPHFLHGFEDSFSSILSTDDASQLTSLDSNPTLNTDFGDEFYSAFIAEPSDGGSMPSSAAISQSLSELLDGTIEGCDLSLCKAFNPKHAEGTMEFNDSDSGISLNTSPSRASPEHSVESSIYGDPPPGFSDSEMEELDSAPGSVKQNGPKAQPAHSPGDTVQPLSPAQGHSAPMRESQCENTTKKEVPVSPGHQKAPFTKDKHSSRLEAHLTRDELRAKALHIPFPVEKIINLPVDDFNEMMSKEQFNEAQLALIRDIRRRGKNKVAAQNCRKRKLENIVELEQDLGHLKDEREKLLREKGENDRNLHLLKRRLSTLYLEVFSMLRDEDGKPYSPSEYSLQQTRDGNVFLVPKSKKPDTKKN

[2] = biological target: T1, Nuclear factor erythroid 2-related factor 2 (Mus musculus); test: Activation of Nrf2 in mouse BV-2 cells assessed as increase in GCLC mRNA expression by measuring fold change at 5 uM measured for 3 hrs by qRT-PCR analysis; assay type: cell-based; conditions: filed as activator
[3] = biological target: T1, Nuclear factor erythroid 2-related factor 2 (Mus musculus); test: Activation of Nrf2 pathway in mouse BV-2 cells assessed as fold increase in HO-1 level at 5 uM measured after 3 hrs by Western blot analysis; assay type: cell-based; conditions: filed as activator
[4] = Induction of NQO1 expression in mouse Hepa1c1c7 cells; assay type: functional
Keap1/Nrf2 [5] = biological target: T2, Keap1/Nrf2 (Homo sapiens, UniProt Q14145+Q16236); test: Binding affinity to human Keap1-Nrf2 protein-protein interaction assessed as inhibition constant incubated for 60 mins by fluorescent polarization assay
BV-2 = test: Antiinflammatory activity against mouse BV-2 cells assessed as reduction in LPS-induced NO production at 20 uM incubated for 24 hrs by Griess reagent based assay relative to control; assay type: functional; set-up: scale not given: the % may be the effect or the level left
Keap1/Nrf2 [6] = biological target: Keap1/Nrf2 (Homo sapiens, UniProt Q14145); test: Inhibition of human Keap1 KELCH domain (321 to 609 residues) expressed in Escherichia coli BL21 DE3 pLysS cells/Nrf2 (unknown origin) protein-protein interaction preincubated with Keap1 for 1 hr followed by Nrf2 addition and measured after 1 hr by fluorescence polarization assay
HepG2-ARE-C8 = test: Activation of Nrf2-ARE pathway in human HepG2-ARE-C8 cells measured for 24 hrs by ARE-luciferase assay; assay type: cell-based; conditions: filed as activator
[7] = biological target: Amyloid-beta precursor protein (Homo sapiens, UniProt P05067); test: Inhibition of amyloid beta 42 (unknown origin) self aggregation by Thioflavin T-based fluorometric assay
Keap1/Nrf2 [8] = biological target: T2, Keap1/Nrf2; test: Binding affinity to human Keap1-Nrf2 protein-protein interaction assessed as dissociation constant; assay type: protein assay

T2 sequence (Q16236 whole entry): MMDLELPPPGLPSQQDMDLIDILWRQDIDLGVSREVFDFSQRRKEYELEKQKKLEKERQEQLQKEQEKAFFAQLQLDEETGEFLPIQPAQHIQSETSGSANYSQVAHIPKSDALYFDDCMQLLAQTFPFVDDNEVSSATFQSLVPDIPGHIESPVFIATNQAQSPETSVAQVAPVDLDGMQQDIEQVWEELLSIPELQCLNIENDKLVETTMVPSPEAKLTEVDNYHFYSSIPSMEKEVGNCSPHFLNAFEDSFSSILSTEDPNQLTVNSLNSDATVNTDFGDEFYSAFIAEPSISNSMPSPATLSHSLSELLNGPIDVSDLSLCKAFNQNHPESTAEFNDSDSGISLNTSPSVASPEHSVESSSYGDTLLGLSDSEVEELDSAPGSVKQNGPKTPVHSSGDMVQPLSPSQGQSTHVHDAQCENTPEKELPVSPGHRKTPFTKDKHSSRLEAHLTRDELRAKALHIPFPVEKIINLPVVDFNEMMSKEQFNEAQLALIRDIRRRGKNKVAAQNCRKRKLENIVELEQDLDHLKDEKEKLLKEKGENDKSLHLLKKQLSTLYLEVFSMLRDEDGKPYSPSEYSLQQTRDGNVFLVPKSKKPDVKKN
T2 sequence (Q14145 whole entry): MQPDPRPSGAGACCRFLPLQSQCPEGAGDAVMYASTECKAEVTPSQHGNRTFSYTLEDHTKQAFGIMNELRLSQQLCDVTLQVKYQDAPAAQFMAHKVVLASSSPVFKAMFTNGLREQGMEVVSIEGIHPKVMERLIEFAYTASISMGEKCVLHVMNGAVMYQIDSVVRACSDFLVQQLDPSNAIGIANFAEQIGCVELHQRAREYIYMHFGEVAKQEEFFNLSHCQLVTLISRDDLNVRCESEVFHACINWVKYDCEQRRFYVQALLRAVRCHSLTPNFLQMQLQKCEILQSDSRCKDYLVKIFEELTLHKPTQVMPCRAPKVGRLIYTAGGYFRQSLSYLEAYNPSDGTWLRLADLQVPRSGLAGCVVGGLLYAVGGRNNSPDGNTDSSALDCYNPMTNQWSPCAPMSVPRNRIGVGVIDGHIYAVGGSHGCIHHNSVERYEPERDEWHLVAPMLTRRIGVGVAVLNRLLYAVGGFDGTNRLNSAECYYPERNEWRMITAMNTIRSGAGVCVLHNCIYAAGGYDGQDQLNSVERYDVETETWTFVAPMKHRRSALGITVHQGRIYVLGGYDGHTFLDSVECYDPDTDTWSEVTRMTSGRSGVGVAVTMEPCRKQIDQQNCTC
Keap1/Nrf2 (Homo sapiens, UniProt Q14145), sequence (Q16236 whole entry, the tested form may be a part): as the sequence (Q16236 whole entry) above
Keap1/Nrf2 (Homo sapiens, UniProt Q14145), sequence (Q14145 whole entry, the tested form may be a part): as the sequence (Q14145 whole entry) above
Amyloid-beta precursor protein, sequence (P05067 whole entry): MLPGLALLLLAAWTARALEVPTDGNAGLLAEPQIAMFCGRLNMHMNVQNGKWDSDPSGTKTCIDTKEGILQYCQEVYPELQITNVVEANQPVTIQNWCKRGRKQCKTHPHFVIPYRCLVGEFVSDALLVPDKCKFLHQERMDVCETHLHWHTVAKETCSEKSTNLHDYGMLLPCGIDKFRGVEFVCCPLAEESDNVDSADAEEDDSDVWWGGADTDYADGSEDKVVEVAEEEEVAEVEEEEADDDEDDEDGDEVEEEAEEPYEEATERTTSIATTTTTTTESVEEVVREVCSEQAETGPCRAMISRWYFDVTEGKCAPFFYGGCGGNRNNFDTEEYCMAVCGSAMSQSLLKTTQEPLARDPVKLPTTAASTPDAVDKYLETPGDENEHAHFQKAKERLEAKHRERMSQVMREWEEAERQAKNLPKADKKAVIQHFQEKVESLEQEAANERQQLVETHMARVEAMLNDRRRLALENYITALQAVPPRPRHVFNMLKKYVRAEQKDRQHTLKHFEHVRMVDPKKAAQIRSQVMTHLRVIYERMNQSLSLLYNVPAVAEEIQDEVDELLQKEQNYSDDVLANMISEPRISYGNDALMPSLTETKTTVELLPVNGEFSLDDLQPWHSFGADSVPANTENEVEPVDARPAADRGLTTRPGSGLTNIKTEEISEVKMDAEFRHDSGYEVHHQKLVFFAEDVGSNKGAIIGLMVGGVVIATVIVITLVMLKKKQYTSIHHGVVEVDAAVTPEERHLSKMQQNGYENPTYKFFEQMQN

Compound: CC(=O)O[C@H]1CC(C)(C)C(=C=C/C(C)=C/C=C/C(C)=C/C=C/C=C(C)/C=C/C=C(\C)C(=O)C[C@@]23O[C@]2(C)C[C@@H](O)CC3(C)C)[C@](C)(O)C1
- fold change (FC) [1]: 2.39
- fold change (FC) [2]: 2.39
- fold change (FC) [3]: 2.02

Compound: O=[N+]([O-])c1ccc(Sc2nnc(COc3ccccc3)n2-c2ccccc2)cc1
- CD [4]: 10 µM

Compound: O=C(NCC1CCCO1)C1CCC([N+](=O)[O-])S1 (centres undefined)
- Ki (Keap1/Nrf2 [5]): 6.15 µM

Compound: O=[N+]([O-])c1ccc(Sc2nnc(COc3ccccc3)n2-c2ccccc2)nc1
- CD [4]: 2.5 µM

Compound: COc1ccccc1S(=O)(=O)/C=C/c1ccccc1C(F)(F)F
- Activity (BV-2): 29.9%

Compound: COc1ccccc1S(=O)(=O)/C=C/c1cccc(Cl)c1
- Activity (BV-2): 32.1%

Compound: COc1ccc(S(=O)(=O)Nc2ccc(N(CC(N)=O)S(=O)(=O)c3ccc(OC)cc3)c3ccccc23)cc1
- IC50 (Keap1/Nrf2 [6]): 0.0257 µM
- Activity (HepG2-ARE-C8): 1.8 nM

Compound: CNC(=O)[C@]12CCC(C)(C)C[C@H]1C1C(=O)C=C3[C@@]4(C)C=C(C#N)C(=O)C(C)(C)[C@@H]4CC[C@@]3(C)[C@]1(C)CC2 (some centres undefined)
- CD [4]: 0.001 µM

Compound: COC(=O)[C@]12CCC(C)(C)C[C@H]1C1C(=O)C=C3[C@@]4(C)C=C(C(=O)O)C(=O)C(C)(C)[C@@H]4CC[C@@]3(C)[C@]1(C)CC2 (some centres undefined)
- CD [4]: 0.018 µM

Compound: COC(=O)[C@]12CCC(C)(C)C[C@H]1C1C(=O)C=C3[C@@]4(C)C=C(C#N)C(=O)C(C)(C)[C@@H]4CC[C@@]3(C)[C@]1(C)CC2 (some centres undefined)
- CD [4]: 0.001 µM

Compound: O=[N+]([O-])c1ccc(Sc2nnc(COc3ccccc3)[nH]2)nc1
- CD [4]: 7.5 µM

Compound: C=CCSC(=O)/C=C/c1ccc(O)c(O)c1
- IC50 [7]: 12.5 µM

Compound: COc1ccccc1S(=O)(=O)/C=C/c1ccc(Cl)cc1
- Activity (BV-2): 31.5%

Compound: CC1(C)CC[C@]2(C#N)CC[C@]3(C)C(C(=O)C=C4[C@@]5(C)C=C(C#N)C(=O)C(C)(C)[C@@H]5CC[C@]43C)[C@@H]2C1 (some centres undefined)
- CD [4]: 0.00027 µM

Compound: Nc1ccc(Sc2nnc(COc3ccccc3)n2-c2ccccc2)nc1
- CD [4]: 2.5 µM

Compound: O=[N+]([O-])c1ccc(Sc2nnc(Cc3ccccc3)n2-c2ccccc2)nc1
- CD [4]: 0.3 µM

Compound: COc1ccccc1S(=O)(=O)/C=C/c1ccccc1F
- Activity (BV-2): 24%

Compound: [H]/N=C(\N/C(=N/[H])NCCCCCCNC(=N)NC(=N)Nc1ccc(Cl)cc1)Nc1ccc(Cl)cc1 [CHLORHEXIDINE]
- Kd (Keap1/Nrf2 [8]): < 30 µM

Compound: CC1(C)CC[C@]2(C(=O)O)CC[C@]3(C)C(C(=O)C=C4[C@@]5(C)C=C(C(=O)O)C(=O)C(C)(C)[C@@H]5CC[C@]43C)[C@@H]2C1 (some centres undefined)
- CD [4]: 0.22 µM

Compound: CC1(C)CC[C@]2(C(=O)O)CC[C@]3(C)C(C(=O)C=C4[C@@]5(C)C=CC(=O)C(C)(C)[C@@H]5CC[C@]43C)[C@@H]2C1 (some centres undefined)
- CD [4]: 0.28 µM

Compound: COc1ccccc1S(=O)(=O)/C=C/c1ccccc1Cl
- Activity (BV-2): 15.2%
